How the values were obtained:
[1] = biological target: T1, Hydroxyproline dehydrogenase (Homo sapiens, UniProt Q9UF12); test: Inhibition of recombinant human HYPDH expressed in Escherichia coli using hydroxyproline as substrate preincubated for 5 mins followed by substrate addition in presence of FAD as cofactor
T1 sequence (Q9UF12 whole entry): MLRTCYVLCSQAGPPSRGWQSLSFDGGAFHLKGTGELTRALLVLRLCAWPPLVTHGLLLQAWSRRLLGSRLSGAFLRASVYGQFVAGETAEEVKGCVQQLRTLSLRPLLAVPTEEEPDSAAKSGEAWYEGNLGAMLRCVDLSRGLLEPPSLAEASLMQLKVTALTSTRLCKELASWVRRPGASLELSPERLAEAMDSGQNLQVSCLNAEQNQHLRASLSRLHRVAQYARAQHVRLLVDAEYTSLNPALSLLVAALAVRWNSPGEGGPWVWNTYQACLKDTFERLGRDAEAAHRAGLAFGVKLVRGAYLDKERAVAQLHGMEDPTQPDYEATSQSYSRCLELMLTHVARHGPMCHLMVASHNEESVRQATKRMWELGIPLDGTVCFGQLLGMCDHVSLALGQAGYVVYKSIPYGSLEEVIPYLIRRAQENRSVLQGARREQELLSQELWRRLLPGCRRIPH

[2] = biological target: T2, 2-Hydroxyacid oxidase 1 (Homo sapiens, UniProt Q9UJM8); test: Inhibition of recombinant human liver HAOX1 using glycolate as substrate preincubated for 5 mins followed by substrate addition in presence of […]
T2 sequence (Q9UJM8 whole entry): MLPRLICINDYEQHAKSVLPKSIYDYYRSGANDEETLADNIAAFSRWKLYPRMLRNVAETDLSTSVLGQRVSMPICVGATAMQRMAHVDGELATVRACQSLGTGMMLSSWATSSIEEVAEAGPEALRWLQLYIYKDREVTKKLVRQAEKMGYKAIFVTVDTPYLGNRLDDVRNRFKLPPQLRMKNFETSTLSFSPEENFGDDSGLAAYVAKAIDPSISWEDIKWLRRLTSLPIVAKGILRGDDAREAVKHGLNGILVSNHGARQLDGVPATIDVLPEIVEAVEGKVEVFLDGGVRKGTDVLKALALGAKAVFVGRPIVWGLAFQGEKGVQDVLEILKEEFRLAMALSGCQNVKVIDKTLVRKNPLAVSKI

| SMILES | IC50 ([1]; read-out: IC50) [µM] | further results |
| --- | --- | --- |
| O=C1CC[C@@H](C(=O)O)C1 | 370 | – |
| O=C(O)[C@@H]1CC[C@@H](O)C1 | 2100 | – |
| O=C(O)C[C@H]1CC[C@H](O)C1 | 480 | – |
| O=C(O)[C@@H]1C[C@@H](O)CS1 | 330 | – |
| O=C(O)C1CCCO1 (stereo unspecified) | 1500 | – |
| O=C(O)[C@@H]1CC(O)(O)CS1 | 290 | – |
| O=C(O)[C@H]1CC[C@H](O)C1 | 600 | – |
| N[C@H]1CC[C@H](C(=O)O)C1 | 630 | – |
| O=C(O)[C@@H]1C[C@H](O)CS1 | 370 | – |
| O=C(O)C1=NN=C(O)C1 | 2900 | – |
| O=C(O)c1cc(O)cs1 | < 1000 | – |
| O=C(O)[C@H]1CC[C@@H](O)C1 | > 10000 | – |
| CCCCCCCCCCCCSc1[nH]nnc1C(=O)O | – | Ki [2]: 15 nM |
| O=C1CC[C@H](C(=O)O)C1 | 380 | – |
| O=C(O)c1ccco1 | – | IC50 [1]: Nd(Insoluble) |
| O=C1CS[C@H](C(=O)O)C1 | 320 | – |
